This is an account of results in patent US9789111B2, “Casein kinase 1δ (CK 1δ) inhibitors” (Electrophoretics Limited, priority 2010, dated 2017).

What all share (assay): kinase inhibition assay panel
Common to all, as to type: biochemical

Test [1] concerns the target CK1a1 (Homo sapiens, UniProt P48729).
The target of test [2] is EGFR (Homo sapiens, UniProt P00533).
The target in test [3] is CK1g2 (Homo sapiens, UniProt P78368).
Sequence of CK1g2 (P78368 whole entry, species assumed): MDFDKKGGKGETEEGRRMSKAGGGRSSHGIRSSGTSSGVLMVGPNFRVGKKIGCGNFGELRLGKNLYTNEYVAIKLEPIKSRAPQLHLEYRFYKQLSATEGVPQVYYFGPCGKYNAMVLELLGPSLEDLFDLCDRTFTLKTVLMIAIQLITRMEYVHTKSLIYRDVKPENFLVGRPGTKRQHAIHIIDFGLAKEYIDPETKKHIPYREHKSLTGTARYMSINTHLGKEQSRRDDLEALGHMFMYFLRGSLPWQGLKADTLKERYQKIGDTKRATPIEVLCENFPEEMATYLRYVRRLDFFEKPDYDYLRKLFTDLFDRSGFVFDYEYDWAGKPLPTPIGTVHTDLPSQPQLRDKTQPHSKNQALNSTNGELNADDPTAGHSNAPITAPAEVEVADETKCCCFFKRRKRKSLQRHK

Sequence of CK1a1 (P48729 whole entry): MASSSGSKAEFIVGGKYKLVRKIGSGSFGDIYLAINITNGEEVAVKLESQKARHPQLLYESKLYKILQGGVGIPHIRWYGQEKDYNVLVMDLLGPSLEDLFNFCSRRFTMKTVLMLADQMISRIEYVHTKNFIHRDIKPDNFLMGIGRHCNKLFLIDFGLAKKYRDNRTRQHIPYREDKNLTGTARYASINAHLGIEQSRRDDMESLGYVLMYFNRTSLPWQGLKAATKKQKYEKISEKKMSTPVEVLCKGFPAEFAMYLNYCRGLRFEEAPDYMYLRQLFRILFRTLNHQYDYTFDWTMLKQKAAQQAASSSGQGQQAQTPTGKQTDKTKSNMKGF
Sequence of EGFR (P00533 25-1210, species assumed): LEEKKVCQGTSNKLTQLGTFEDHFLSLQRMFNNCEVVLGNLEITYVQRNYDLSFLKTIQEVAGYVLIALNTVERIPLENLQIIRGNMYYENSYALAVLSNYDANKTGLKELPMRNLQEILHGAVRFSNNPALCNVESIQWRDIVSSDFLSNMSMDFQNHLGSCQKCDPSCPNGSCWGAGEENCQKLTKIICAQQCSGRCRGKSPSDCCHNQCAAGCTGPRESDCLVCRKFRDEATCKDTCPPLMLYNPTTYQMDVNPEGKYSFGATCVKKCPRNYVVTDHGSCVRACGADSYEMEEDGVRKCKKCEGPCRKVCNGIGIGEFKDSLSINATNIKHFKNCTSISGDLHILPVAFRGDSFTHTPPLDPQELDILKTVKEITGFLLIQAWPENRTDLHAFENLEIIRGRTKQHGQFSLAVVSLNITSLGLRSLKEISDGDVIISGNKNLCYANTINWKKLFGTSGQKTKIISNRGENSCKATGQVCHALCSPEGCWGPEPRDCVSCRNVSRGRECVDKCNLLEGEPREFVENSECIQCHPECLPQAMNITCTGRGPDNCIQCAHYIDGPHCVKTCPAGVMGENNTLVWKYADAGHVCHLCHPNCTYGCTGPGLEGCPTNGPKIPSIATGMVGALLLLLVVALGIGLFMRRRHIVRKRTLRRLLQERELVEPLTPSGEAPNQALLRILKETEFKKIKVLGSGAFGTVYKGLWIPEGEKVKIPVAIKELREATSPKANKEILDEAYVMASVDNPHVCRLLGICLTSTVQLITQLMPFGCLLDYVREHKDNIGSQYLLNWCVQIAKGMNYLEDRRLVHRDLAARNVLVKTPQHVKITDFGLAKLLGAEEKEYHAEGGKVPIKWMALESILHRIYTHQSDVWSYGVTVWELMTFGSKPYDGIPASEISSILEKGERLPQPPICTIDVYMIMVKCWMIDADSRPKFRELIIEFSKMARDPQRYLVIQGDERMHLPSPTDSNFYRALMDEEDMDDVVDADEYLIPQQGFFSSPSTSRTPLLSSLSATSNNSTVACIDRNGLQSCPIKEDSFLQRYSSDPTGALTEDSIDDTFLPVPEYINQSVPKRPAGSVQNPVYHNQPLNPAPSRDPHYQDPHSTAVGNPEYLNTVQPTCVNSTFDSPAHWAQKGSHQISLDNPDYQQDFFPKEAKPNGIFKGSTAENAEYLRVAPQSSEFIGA

With `Nc1ncc(-c2nc3ccccc3o2)c(-c2ccncc2)n1` [Compound 324, 5-(1,3-benzoxazol-2-yl)-4-(pyridin-4-yl)pyrimidin-2-amine], in test [1], the “inhibition of CK1a1” value was “lower than 40%”. Moreover, the “inhibition of EGFR” value in test [2] is given as “lower than 40%”.

For `NC(=O)c1c(N)c(C(=O)c2ccc(F)cc2)n2ccccc12` [Compound 987, 2-amino-3-[(4-fluorophenyl)carbonyl]indolizine-1-carboxamide], the “inhibition of CK1g2” value in test [3] is reported as “lower than 40%”.
